From paper PMC7730235, “Discovery of a Novel Class of Covalent Dual Inhibitors Targeting the Protein Kinases BMX and BTK” (International Journal of Molecular Sciences, 2020)

What was measured:
[1] = target: T1, HER4 (Homo sapiens, UniProt Q15303); experiment: Radiometric kinase assay (Reaction Biology HotSpot); type: biochemical; settings: [ATP] = 10 μM; for remaining activity at 0.2 µM: 200 nM compound, duplicate mean, read-out: Residual Activity @ 200 nM, HER4
T1 construct: purchased Reaction Biology Corporation
T1 sequence (Q15303 26-1308): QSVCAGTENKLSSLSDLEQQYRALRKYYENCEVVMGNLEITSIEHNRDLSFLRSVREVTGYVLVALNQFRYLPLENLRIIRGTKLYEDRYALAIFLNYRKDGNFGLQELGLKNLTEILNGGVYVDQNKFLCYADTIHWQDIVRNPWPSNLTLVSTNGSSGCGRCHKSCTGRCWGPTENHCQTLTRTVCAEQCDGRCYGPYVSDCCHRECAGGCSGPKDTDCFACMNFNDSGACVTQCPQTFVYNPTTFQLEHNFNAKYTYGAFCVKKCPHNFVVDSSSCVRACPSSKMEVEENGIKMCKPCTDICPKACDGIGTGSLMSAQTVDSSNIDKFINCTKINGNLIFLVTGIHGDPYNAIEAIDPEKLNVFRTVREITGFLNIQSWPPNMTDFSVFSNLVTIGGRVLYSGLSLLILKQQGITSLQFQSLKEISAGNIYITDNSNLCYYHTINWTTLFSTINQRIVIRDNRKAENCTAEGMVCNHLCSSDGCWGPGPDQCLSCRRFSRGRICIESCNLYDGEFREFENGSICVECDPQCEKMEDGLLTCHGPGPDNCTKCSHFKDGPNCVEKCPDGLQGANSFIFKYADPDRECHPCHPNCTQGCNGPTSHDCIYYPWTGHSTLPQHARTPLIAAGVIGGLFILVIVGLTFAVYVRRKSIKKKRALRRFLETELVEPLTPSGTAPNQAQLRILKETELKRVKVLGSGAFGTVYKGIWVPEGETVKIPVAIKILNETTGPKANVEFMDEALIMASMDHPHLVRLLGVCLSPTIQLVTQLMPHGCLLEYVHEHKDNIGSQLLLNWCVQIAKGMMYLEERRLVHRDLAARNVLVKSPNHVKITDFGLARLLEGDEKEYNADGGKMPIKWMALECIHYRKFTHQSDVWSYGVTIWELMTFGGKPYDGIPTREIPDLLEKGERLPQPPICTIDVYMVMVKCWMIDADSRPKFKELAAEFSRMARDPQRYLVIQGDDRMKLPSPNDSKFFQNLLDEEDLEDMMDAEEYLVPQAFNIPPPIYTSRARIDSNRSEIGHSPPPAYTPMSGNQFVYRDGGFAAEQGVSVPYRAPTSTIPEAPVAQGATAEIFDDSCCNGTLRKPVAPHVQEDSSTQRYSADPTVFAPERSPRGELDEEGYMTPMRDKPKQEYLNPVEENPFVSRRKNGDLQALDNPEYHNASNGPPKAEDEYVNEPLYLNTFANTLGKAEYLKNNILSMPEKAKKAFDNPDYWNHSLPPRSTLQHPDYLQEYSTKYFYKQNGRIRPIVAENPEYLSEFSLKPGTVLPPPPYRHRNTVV
Protocol: (§1) If not mentioned differently, in vitro profiling of compounds was performed at Reaction Biology Corporation using the HotSpot™ assay platform.

[2] = target: T2, JAK1 (Homo sapiens, UniProt P23458); experiment: as above; type: biochemical; settings: five-dose singlicate, [ATP] = 10 μM
T2 construct: purchased Reaction Biology Corporation
T2 sequence (P23458 whole entry): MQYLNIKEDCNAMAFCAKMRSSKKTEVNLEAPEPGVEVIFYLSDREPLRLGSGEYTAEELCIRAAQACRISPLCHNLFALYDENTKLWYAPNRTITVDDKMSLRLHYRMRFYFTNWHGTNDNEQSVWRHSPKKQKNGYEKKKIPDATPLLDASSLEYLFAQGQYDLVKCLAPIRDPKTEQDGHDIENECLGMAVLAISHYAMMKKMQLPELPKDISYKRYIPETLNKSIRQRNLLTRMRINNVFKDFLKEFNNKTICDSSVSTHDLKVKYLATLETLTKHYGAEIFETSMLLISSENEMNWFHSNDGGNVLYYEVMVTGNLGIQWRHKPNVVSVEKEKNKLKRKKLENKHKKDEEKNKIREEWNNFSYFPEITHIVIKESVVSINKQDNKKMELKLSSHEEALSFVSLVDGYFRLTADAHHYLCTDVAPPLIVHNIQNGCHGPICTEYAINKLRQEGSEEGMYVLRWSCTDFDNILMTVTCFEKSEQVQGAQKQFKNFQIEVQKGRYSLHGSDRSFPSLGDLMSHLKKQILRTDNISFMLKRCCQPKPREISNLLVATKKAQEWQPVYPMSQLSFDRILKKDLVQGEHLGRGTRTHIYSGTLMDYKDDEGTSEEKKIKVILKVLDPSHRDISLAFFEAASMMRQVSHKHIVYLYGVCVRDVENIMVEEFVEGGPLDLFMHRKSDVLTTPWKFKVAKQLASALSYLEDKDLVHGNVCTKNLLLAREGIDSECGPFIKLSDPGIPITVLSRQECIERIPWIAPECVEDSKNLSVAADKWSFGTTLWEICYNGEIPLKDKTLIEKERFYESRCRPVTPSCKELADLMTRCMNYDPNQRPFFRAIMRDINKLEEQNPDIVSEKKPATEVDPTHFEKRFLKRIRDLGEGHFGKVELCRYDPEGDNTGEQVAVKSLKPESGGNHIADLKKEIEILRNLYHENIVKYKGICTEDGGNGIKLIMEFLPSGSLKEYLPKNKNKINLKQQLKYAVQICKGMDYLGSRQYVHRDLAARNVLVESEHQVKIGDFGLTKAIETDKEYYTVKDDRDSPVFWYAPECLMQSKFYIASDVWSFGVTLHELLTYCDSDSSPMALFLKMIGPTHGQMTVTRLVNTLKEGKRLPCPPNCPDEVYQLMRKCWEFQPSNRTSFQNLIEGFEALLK
Protocol: as §1

[3] = target: T3, JAK2 (Homo sapiens, UniProt O60674); experiment: as above; type: biochemical; settings: five-dose singlicate, [ATP] = 10 μM
T3 construct: purchased Reaction Biology Corporation
T3 sequence (O60674 whole entry): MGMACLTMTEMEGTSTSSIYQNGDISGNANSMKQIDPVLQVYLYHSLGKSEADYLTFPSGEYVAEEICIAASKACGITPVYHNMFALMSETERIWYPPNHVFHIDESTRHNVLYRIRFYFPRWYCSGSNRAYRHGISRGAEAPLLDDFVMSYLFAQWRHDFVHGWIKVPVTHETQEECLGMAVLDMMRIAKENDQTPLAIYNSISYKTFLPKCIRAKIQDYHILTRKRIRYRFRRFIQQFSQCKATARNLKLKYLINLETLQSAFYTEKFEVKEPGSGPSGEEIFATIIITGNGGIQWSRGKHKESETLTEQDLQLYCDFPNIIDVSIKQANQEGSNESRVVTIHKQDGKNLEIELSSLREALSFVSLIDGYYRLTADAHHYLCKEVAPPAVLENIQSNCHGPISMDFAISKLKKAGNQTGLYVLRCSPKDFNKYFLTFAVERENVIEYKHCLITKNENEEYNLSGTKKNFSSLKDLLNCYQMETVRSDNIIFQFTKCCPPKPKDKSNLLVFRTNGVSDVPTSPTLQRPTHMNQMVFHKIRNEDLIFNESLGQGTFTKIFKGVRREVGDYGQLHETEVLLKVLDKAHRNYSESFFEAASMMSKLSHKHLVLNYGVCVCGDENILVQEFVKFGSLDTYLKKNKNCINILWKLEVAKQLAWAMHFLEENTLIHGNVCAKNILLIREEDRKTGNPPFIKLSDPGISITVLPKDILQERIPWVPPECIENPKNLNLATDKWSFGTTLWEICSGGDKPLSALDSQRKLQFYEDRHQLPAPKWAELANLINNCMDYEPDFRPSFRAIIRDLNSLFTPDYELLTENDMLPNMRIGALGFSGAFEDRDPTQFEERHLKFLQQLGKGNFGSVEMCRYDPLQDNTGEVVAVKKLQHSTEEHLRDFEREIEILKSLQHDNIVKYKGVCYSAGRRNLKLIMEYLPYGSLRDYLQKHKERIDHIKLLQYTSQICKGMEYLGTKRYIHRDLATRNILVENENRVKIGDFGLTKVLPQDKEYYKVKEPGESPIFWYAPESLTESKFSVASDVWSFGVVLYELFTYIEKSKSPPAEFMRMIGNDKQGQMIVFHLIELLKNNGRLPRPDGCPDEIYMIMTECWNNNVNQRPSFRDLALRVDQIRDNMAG
Protocol: as §1

[4] = target: T4, MKK7 (Homo sapiens, UniProt O14733); experiment: as above; type: biochemical; settings: 200 nM compound, duplicate mean, [ATP] = 10 μM; read-out: Residual Activity @ 200 nM, MKK7
T4 construct: purchased Reaction Biology Corporation
T4 sequence (O14733 1-419): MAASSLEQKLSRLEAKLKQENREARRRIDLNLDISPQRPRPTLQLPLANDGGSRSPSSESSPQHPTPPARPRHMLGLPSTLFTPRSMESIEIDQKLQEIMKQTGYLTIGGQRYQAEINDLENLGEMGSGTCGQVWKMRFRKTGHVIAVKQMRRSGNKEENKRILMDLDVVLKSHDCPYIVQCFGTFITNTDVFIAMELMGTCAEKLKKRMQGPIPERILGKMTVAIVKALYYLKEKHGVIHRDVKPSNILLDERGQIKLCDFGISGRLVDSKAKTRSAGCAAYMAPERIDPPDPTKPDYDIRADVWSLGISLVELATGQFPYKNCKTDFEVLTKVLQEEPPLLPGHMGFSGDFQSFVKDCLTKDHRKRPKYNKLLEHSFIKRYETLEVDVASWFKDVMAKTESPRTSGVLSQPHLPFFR
Protocol: as §1

[5] = target: T5, TXK (Homo sapiens, UniProt P42681); experiment: as above; type: biochemical; settings: for remaining activity at 0.2 µM: read-out: Residual Activity @ 200 nM, TXK; for IC50: five-dose singlicate
T5 construct: purchased Reaction Biology Corporation
T5 sequence (P42681 1-527): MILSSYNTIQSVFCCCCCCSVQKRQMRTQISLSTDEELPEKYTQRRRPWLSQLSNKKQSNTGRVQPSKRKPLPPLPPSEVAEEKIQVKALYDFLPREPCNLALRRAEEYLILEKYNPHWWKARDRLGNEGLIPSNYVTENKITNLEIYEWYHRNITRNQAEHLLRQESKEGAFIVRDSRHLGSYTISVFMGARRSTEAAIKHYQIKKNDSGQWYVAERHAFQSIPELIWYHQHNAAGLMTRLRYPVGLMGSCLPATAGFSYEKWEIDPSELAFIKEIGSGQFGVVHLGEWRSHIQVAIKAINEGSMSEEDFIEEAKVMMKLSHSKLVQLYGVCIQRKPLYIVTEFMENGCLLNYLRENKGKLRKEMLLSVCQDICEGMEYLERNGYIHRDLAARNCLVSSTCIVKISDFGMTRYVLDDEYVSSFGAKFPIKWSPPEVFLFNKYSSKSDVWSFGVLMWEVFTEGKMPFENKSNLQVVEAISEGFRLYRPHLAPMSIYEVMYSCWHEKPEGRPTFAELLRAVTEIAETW
Protocol: as §1

[6] = target: T6, TYK2 (Homo sapiens, UniProt P29597); experiment: as above; type: biochemical; settings: five-dose singlicate, [ATP] = 10 μM
T6 construct: purchased Reaction Biology Corporation
T6 sequence (P29597 whole entry): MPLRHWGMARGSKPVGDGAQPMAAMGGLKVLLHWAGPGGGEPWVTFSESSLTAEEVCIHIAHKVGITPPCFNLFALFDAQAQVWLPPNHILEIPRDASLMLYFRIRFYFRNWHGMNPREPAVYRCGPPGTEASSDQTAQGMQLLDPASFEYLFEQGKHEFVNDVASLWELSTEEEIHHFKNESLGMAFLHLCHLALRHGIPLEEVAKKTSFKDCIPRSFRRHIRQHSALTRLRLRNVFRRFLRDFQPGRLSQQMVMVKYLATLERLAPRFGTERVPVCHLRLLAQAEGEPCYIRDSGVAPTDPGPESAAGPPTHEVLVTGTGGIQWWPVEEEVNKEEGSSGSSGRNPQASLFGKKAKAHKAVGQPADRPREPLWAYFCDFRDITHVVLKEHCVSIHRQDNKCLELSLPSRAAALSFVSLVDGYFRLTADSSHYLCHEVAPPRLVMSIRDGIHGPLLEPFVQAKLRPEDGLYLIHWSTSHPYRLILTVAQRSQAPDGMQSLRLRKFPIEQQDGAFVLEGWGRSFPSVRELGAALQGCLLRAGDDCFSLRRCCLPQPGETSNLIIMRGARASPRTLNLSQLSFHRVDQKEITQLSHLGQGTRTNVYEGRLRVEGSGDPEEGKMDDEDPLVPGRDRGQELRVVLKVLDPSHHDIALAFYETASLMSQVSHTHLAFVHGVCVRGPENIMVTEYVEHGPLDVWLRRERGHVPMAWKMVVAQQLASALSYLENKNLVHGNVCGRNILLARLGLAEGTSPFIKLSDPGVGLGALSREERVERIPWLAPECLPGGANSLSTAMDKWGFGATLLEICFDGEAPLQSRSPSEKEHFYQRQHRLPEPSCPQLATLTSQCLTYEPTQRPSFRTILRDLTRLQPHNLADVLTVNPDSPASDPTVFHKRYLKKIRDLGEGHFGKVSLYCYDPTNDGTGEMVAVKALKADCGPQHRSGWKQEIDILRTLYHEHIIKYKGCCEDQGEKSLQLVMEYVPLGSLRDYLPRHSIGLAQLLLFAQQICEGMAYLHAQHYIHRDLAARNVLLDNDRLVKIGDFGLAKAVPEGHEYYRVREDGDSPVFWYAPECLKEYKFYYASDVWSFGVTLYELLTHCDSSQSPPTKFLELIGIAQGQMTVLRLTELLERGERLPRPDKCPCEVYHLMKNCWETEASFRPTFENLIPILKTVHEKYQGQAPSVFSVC
Protocol: as §1

[7] = target: T7, kinase domain of BMX (Homo sapiens, UniProt P51813); experiment: Thermal shift (ΔTm) assay; type: binding; settings: 2 μM kinase domain, 10 μM inhibitor; mean ± SD of at least three measurements
T7 construct: The kinase domains of JAK3 and BMX at 2 μM
T7 sequence (P51813 417-675 limits assumed): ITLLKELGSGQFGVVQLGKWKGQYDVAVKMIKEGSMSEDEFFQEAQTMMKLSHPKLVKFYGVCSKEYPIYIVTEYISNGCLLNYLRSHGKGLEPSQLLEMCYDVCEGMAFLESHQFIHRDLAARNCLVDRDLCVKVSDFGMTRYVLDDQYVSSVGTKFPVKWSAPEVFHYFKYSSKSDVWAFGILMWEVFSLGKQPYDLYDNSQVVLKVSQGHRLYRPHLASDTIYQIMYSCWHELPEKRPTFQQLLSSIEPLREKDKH
Protocol: (§2) The kinase domains of JAK3 and BMX at 2 μM were mixed with the inhibitors at 10 μM, and subsequently SyPRO orange dye (Invitrogen Carlsbad, CA, USA) was added. The thermal shift assay and data evaluation were performed as described previously using a Real-Time PCR Mx3005p machine (Stratagene, La Jolla, CA, USA).

[8] = target: T8, kinase domain of JAK3 (Homo sapiens, UniProt P52333); experiment: Thermal shift (ΔTm) assay; type: binding; settings: 2 μM kinase domain, 10 μM inhibitor; mean ± SD of at least three measurements
T8 construct: The kinase domains of JAK3 and BMX at 2 μM; made in house
Protocol: as §2

[9] = target: T9, JAK3 (Homo sapiens, UniProt P52333); experiment: JAK3 ELISA assay; type: biochemical; settings: Determined in a JAK3 ELISA assay
T9 construct: purchased Reaction Biology Corporation
T9 sequence (P52333 1-1124): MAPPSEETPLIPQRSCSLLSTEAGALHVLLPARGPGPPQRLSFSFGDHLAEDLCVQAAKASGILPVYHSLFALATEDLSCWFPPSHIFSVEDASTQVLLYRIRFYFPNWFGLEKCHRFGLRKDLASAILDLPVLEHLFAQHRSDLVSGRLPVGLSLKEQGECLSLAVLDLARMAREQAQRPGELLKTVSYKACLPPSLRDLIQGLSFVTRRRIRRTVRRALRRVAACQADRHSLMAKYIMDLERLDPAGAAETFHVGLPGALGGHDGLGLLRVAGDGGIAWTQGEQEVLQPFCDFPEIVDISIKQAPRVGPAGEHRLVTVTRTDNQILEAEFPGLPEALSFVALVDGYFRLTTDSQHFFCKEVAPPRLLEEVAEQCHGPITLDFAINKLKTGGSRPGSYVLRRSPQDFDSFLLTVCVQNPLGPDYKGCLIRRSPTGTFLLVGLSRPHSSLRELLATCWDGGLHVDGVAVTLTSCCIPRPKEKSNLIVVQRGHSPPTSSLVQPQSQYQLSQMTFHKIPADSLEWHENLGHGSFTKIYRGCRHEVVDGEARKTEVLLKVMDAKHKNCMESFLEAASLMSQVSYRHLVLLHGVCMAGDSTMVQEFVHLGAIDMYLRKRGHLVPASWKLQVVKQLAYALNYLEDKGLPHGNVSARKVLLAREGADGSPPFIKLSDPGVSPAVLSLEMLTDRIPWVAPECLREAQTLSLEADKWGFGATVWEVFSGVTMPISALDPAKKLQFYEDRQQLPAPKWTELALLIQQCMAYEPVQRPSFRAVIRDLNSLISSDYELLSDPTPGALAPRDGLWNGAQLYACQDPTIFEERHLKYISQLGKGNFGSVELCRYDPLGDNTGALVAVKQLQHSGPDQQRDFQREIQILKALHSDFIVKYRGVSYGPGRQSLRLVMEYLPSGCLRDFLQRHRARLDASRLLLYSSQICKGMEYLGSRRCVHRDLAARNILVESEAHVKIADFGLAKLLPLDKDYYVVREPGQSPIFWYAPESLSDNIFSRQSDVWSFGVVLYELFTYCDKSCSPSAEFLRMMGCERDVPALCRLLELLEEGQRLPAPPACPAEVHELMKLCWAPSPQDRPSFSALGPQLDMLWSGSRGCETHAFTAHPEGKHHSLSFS

[10] = system: kinases harboring an αD-1 cysteine; experiment: Profiling at 200 nM against kinases with an αD-1 cysteine; type: biochemical; settings: 200 nM compound
Protocol: as §1

[11] = 200 nM compound, duplicate mean, [ATP] = 10 μM
[12] = radiometric HotSpot, [ATP] = 10 μM

## C=CC(=O)Nc1cccc(-c2c[nH]c3ncccc23)c1 [Compound 9a, N-(3-(1H-pyrrolo[2,3-b]pyridin-3-yl)phenyl)acrylamide]
[1]
  remaining activity at 0.2 µM: 66.1%
[2]
  IC50: 2970 nM
[3]
  IC50: 3580 nM
[4]
  remaining activity at 0.2 µM: 37.3%
[5]; [11]
  remaining activity at 0.2 µM: 1.8%
[6]
  IC50: 5540 nM

## C=CC(=O)Nc1cccc(-c2c[nH]c3ncc(C(N)=O)cc23)c1 [Compound 10a, 3-(3-acrylamidophenyl)-1H-pyrrolo[2,3-b]pyridine-5-carboxamide]
[1]
  remaining activity at 0.2 µM: 66.6%
[2]
  IC50: 460 nM
[3]
  IC50: 1120 nM
[4]
  remaining activity at 0.2 µM: 28.3%
[5]; [11]
  remaining activity at 0.2 µM: 3.2%
[5]; [12]
  IC50: 28 nM
[6]
  IC50: 1900 nM
[7]
  ΔTm at 10 µM: 10.49 ± 0.09 °C
[8]
  ΔTm at 10 µM: 21.07 ± 0.03 °C

## C=CC(=O)Nc1cccc(-c2c[nH]c3ncc(C(=O)NC4CCCC4)cc23)c1 [Compound 11a, 3-(3-acrylamidophenyl)-N-cyclopentyl-1H-pyrrolo[2,3-b]pyridine-5-carboxamide]
[5]; 1 µM compound, radiometric HotSpot, read-out: residual activity at 1 µM, TXK
  remaining activity at 1 µM: 72%
[5]; [12]
  IC50: > 1000 nM
[9]
  IC50: > 10000 nM
[7]
  ΔTm at 10 µM: 5.31 ± 0.18 °C
[8]
  ΔTm at 10 µM: 9.12 ± 0.02 °C
[10]
  activity at 200 nM on kinases harboring an αD-1 cysteine: did not show substantial activity

## CCC(=O)Nc1cccc(-c2c[nH]c3ncc(NC(=O)C4CCCC4)cc23)c1 [Compound 12b, N-(3-(3-propionamidophenyl)-1H-pyrrolo[2,3-b]pyridin-5-yl)cyclopentanecarboxamide]
[1]
  remaining activity at 0.2 µM: 95.4%
[5]; [11]
  Residual Activity @ 200 nM, TXK: 88.8%
  remaining activity at 0.2 µM: 89%

## C=CC(=O)Nc1cccc(-c2c[nH]c3ncc(NC(=O)c4cccs4)cc23)c1 [Compound 12c, N-(3-(3-acrylamidophenyl)-1H-pyrrolo[2,3-b]pyridin-5-yl)thiophene-2-carboxamide]
[1]
  remaining activity at 0.2 µM: 4.7%
[1]; radiometric HotSpot, five-dose singlicate
  IC50: 8.5 nM
[4]
  remaining activity at 0.2 µM: > 100%
[5]; [11]
  remaining activity at 0.2 µM: 0.3%
[5]; [12]
  IC50: 10 nM
[7]
  ΔTm at 10 µM: 11.52 ± 0.08 °C
[8]
  ΔTm at 10 µM: 7.36 ± 0.44 °C
